From US12448388B2, “PRMT5 inhibitors and uses thereof” (Gilead Sciences, Inc., priority 2023, dated 2025)
Like-named read-outs stand apart in the source and are kept apart here.

Legend:
[1] = test system: HCT116 MTAP-deleted cell lines; assay: Cell viability assay (CellTiter-Glo, 7 days), HCT116 MTAP-deleted; assay type: cell-based; conditions: Homo sapiens, HCT-116, HCT116 MTAP-deleted, class symbols, read-out: CC50
Procedure, shortened: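 PRMT5 inhibitors were serially diluted in DMSO and acoustically spotted as dose-response series into plates before cell seeding. Cells were grown with compound for 7 days at 37 °C, 5% CO2, 90% humidity, then viability was read by CellTiter-Glo luminescence and reported as CC50.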

[2] = test system: Symmetric Di-methyl Arginine (SDMA) signal (PRMT5 inhibition) in HCT116 MTAP-deleted cells; assay: Symmetric di-methyl arginine image-based high content screen assay (SDMA assay), HCT116 MTAP-deleted; assay type: cell-based; conditions: for EC50: Homo sapiens, HCT-116, HCT116 MTAP-deleted, class symbols
Procedure, shortened: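 HCT116 WT and MTAP-deleted cells (800/well, RPMI 1640 + 10% FBS) treated with compound 3 days at 37 °C; formalin-fixed, stained with anti-SDMA antibody/Alexa 488 plus DAPI. Mean SDMA intensity per DAPI-defined cell imaged; EC50 from 4-parameter logistic fit.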

[3] = HCT116 WT versus HCT116 MTAP-deleted
[4] = HCT116 WT vs HCT116 MTAP-deleted

Row | EC50 selectivity [2, 3] | EC50 [2] | EC50 selectivity [2, 4] | Structure (SMILES) | CC50 ([1]; cell viability) | CC50 ([1]; cell viability assay)
1 | 320 | > 5 nM |  | CC(=O)N(C)N(Cc1nc2cc(Cl)ccc2s1)C(=O)c1ccc2nc(N)c3cncn3c2c1 [Fb-5, N′-acetyl-4-amino-N-((5-chlorobenzo[d]thiazol-2-yl)methyl)-N′-methylimidazo[1,5-a]quinoxaline-8-carbohydrazide] | 100 to 1000 nM | 
2 |  | ≤ 1 nM | 273 | Cc1ncn2c1c(N)nc1cnc(C(=O)N3C[C@@H](F)C[C@@H]4Oc5cc(OC(F)(F)F)ccc5[C@@H]43)cc12 [Fg-46, (4-amino-3-methylimidazo[1,5-a]pyrido[3,4-e]pyrazin-8-yl)((3S,4aS,9bS)-3-fluoro-7-(trifluoromethoxy)-3,4,4a,9b-tetrahydrobenzofuro[3,2-b]pyridin-1(2H)-yl)methanone] |  | < 100 nM
3 |  | 1 to 5 nM | 274 | Cc1ncn2c1c(N)nc1cnc(C(=O)N3CCC4(CC4)[C@@H]4Oc5cc(OC(F)(F)F)ccc5[C@@H]43)cc12 [Ff-617, (4-amino-3-methylimidazo[1,5-a]pyrido[3,4-e]pyrazin-8-yl)((4aS,9bS)-7-(trifluoromethoxy)-2,3,4a,9b-tetrahydro-1H-spiro[benzofuro[3,2-b]pyridine-4,1′-cyclopropan]-1-yl)methanone] |  | < 100 nM
4 | 178 | > 5 nM |  | Nc1nc2cc(F)c(C(=O)N3CC4CC(C3)c3ccccc34)cc2n2cncc12 [Ff-62, (4-amino-7-fluoroimidazo[1,5-a]quinoxalin-8-yl)(1,2,4,5-tetrahydro-3H-1,5-methanobenzo[d]azepin-3-yl)methanone] | > 1000 nM | 
5 |  | 1 to 5 nM | 485 | Nc1nc2cc(F)c(C(=O)N3CCC4(CCCc5ccccc54)C3)cc2n2cncc12 (stereo not drawn) [Ff-669, (4-amino-7-fluoroimidazo[1,5-a]quinoxalin-8-yl)(3,4-dihydro-2H-spiro[naphthalene-1,3′-pyrrolidin]-1′-yl)methanone] |  | 100 to 1000 nM
6 |  | ≤ 1 nM | 39 | Cc1ncn2c1c(N)nc1cnc(C(=O)N3CCC[C@@H]4Oc5cc(S(F)(F)(F)(F)F)ccc5[C@@H]43)cc12 [Ff-665, (4-amino-3-methylimidazo[1,5-a]pyrido[3,4-e]pyrazin-8-yl)((4aS,9bS)-7-(pentafluoro-16-sulfaneyl)-3,4,4a,9b-tetrahydrobenzofuro[3,2-b]pyridin-1(2H)-yl)methanone] |  | < 100 nM
7 | 26 | 1 to 5 nM |  | C[C@@H]1CC2Cc3cc(C(F)(F)F)ccc3[C@@H]2N(C(=O)c2cc3c(cc2F)nc(N)c2cncn23)C1 (mixture of isomers) [Ff-320, Rac-(4-amino-7-fluoroimidazo[1,5-a]quinoxalin-8-yl)((3R,4aR,9bR)-3-methyl-7-(trifluoromethyl)-2,3,4,4a,5,9b-hexahydro-1H-indeno[1,2-b]pyridin-1-yl)methanone] | < 100 nM | 

Further lines, the compound ahead of its results:

Row | Structure (SMILES) | EC50 selectivity [2, 3] | EC50 [2] | EC50 selectivity [2, 4] | CC50 ([1]; cell viability) | CC50 ([1]; cell viability assay)
8 | Nc1nc2ccc(C(=O)N(Cc3ccc(C(F)(F)F)cn3)C34CC(C3)C4)cc2c2cncn12 [Fg-15, 5-amino-N-(bicyclo[1.1.1]pentan-1-yl)-N-((5-(trifluoromethyl)pyridin-2-yl)methyl)imidazo[1,5-c]quinazoline-9-carboxamide] |  | > 5 nM | 8 |  | > 1000 nM
9 | Nc1nc2cnc(C(=O)N3C[C@@H](F)C[C@@H]4Oc5cc(OC(F)(F)F)ccc5[C@@H]43)cc2n2cncc12 [Fg-44, (4-aminoimidazo[1,5-a]pyrido[3,4-e]pyrazin-8-yl)((3S,4aS,9bS)-3-fluoro-7-(trifluoromethoxy)-3,4,4a,9b-tetrahydrobenzofuro[3,2-b]pyridin-1(2H)-yl)methanone] |  | ≤ 1 nM | 119 |  | < 100 nM
10 | Nc1nc2cc(F)c(C(=O)N3CCC[C@H]4OCc5cc(OC(F)F)ccc5[C@H]43)cc2n2cncc12 (single isomer, unassigned) [Ff-391] |  | 1 to 5 nM | 26 |  | < 100 nM
11 | Nc1nc2cc(F)c(C(=O)N3CCC[C@@H]4Oc5cc(C(F)(F)C(F)(F)F)ncc5[C@@H]43)cc2n2cncc12 [Fg-40, (4-amino-7-fluoroimidazo[1,5-a]quinoxalin-8-yl)((4aS,9bS)-7-(perfluoroethyl)-3,4,4a,9b-tetrahydrofuro[3,2-b:4,5-c′]dipyridin-1(2H)-yl)methanone] |  | ≤ 1 nM | 92 |  | < 100 nM
12 | C[C@H]1CN(C(=O)c2cc3c(cc2F)nc(N)c2cncn23)[C@H]2c3ccc(C(F)(F)C(F)(F)F)cc3C[C@H]2O1 [Fg-38, (4-amino-7-fluoroimidazo[1,5-a]quinoxalin-8-yl)((2S,4aS,9aR)-2-methyl-7-(perfluoroethyl)-2,3,9,9a-tetrahydroindeno[2,1-b][1,4]oxazin-4(4aH)-yl)methanone] |  | 1 to 5 nM | 31 |  | < 100 nM
13 | Cc1ncc2c(N)nc3ccc(C(=O)N(C)[C@@H]4COc5nc(C(F)(F)F)ccc54)cc3n12 [Ff-21, (S)-4-amino-N,1-dimethyl-N-(6-(trifluoromethyl)-2,3-dihydrofuro[2,3-b]pyridin-3-yl)imidazo[1,5-a]quinoxaline-8-carboxamide] | 874 | 1 to 5 nM |  | 100 to 1000 nM | 
14 | Nc1nc2cc(F)c(C(=O)N3C[C@H](F)CC4Oc5cc(OC(F)(F)F)ccc5C43)cc2n2cncc12 (mixture of isomers) [Fg-57, rac-(4-amino-7-fluoroimidazo[1,5-a]quinoxalin-8-yl)((3R,4aS,9bS)-3-fluoro-7-(trifluoromethoxy)-3,4,4a,9b-tetrahydrobenzofuro[3,2-b]pyridin-1(2H)-yl)methanone] |  | ≤ 1 nM | 137 |  | < 100 nM
15 | CN(C(=O)c1cc2c(cc1F)nc(N)c1cncn12)[C@@H]1COCc2cc(-c3cnn(C(F)(F)F)c3)ccc21 [Ff-279, (S)-4-amino-7-fluoro-N-methyl-N-(7-(1-(trifluoromethyl)-1H-pyrazol-4-yl)isochroman-4-yl)imidazo[1,5-a]quinoxaline-8-carboxamide] | 60 | ≤ 1 nM |  | < 100 nM | 
16 | Cc1ncc2c(N)nc3ccc(C(=O)N(C)[C@@H]4COc5cc(C#CC6(C)COC6)ccc54)cc3n12 [Ff-20, (S)-4-amino-N,1-dimethyl-N-(6-((3-methyloxetan-3-yl)ethynyl)-2,3-dihydrobenzofuran-3-yl)imidazo[1,5-a]quinoxaline-8-carboxamide] | 382 | 1 to 5 nM |  | < 100 nM | 
17 | Cc1nc(C)n2c1c(N)nc1ccc(C(=O)N(C)[C@@H]3COCc4cc(Br)ccc43)cc12 [Fg-14, (S)-4-amino-N-(7-bromoisochroman-4-yl)-N,1,3-trimethylimidazo[1,5-a]quinoxaline-8-carboxamide] |  | 1 to 5 nM | 158 |  | 100 to 1000 nM
18 | CN(C(=O)c1ccc2nc(N)n3cncc3c2c1)[C@@H]1COc2cc(C(F)(F)F)ccc21 [Fg-9, (S)-5-amino-N-methyl-N-(6-(trifluoromethyl)-2,3-dihydrobenzofuran-3-yl)imidazo[1,5-c]quinazoline-9-carboxamide] |  | > 5 nM | 255 |  | > 1000 nM
